Results on eight molecules are retold here after patent publication US9062124B2, “GIP-based mixed agonists for treatment of metabolic disorders and obesity” (priority 2008, dated 2015).

The target of one assay is T1, glucagon receptor (Homo sapiens, UniProt P47871).
T1 construct: expressed in transfected cells; host or cells: HEK293
The assay can be described thus: cAMP synthesis functional assay (firefly luciferase reporter in HEK293 cells), glucagon receptor. The class given is cell-based. Conditions: relative to the standard (Std.) EC50 of the same run. (In a reporter assay the amount or activity of a reporter protein is the signal.)

Another assay concerns the target T2, GLP-1 receptor (Homo sapiens, UniProt P43220).
T2 construct: expressed in transfected cells; host or cells: HEK293
The assay can be described thus: cAMP synthesis functional assay (firefly luciferase reporter in HEK293 cells), GLP-1 receptor. The class given is cell-based.

In the next assay the target is T3, GIP receptor (Homo sapiens, UniProt P48546).
T3 construct: expressed in transfected cells; host or cells: HEK293
T3 sequence (P48546 22-466): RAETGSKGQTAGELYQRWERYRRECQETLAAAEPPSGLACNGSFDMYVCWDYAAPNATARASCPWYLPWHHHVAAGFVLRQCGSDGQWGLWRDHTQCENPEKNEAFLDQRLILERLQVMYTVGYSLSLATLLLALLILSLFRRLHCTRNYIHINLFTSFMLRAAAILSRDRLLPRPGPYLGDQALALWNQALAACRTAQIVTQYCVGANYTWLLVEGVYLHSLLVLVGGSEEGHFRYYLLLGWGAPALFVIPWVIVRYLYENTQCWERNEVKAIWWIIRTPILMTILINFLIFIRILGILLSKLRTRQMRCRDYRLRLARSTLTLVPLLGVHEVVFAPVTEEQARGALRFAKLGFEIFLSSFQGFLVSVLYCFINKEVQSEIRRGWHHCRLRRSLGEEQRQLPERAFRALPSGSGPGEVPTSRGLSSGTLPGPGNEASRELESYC
The experiment in a line: cAMP synthesis functional assay (firefly luciferase reporter in HEK293 cells), GIP receptor. The class given is cell-based. As to conditions: relative to the standard (Std.) EC50 of the same run.

For assay [1], the system named is glucagon receptor, GLP-1 receptor or GIP receptor. The experiment in a line: Agonist profile across receptors assigned from the cAMP reporter assay data. The class given is cell-based. Conditions: assigned from the in vitro EC50 data of Tables 1-4.
Assay [2] can be described thus: Blood glucose levels of mice after peptide injection.
The nature of assay [3]: Food intake of mice after peptide injection. The class given is in vivo. As to conditions: for total food intake: versus vehicle control.
A short description of assay [4]: Body weight of mice after peptide injection. Conditions: for reduction of body weight: subcutaneous QW, 70 or 210 nmol/kg/week; for % change in body weight: Example 26, intraperitoneal, 3 or 10 nmol/kg/week, up to Day 7; for total change in body weight: subcutaneous, Day 7.
Assay [5] in a line: Glucose tolerance test (1-hour and 24-hour GTT) in DIO mice. As to conditions: Example 26; for potency in GTT compared with GLP-1 agonist control peptide: 1 or 3 nmol/kg/week versus control at 10 nmol/kg/week; for blood glucose levels in 1-hour and 24-hour GTT: DIO mice, intraperitoneal, 1, 3 or 10 nmol/kg/week, versus vehicle control. The class given is in vivo. The protocol: A 1-hour glucose tolerance test (GTT) was performed on the mice by intraperitoneally injecting a 25% (w/v) glucose saline solution into the mice one hour after injection with one of the peptides or vehicle control. The glucose saline solution was administered to the mice at a dose of 1.5 g per kg of mouse body weight. Blood glucose levels were measured at the time of injection of peptide or vehicle control (−60 min), at the time of glucose saline solution injection (0 min), or at 15, 30, 60, or 120 min post injection with the glucose saline solution.
A 24-hour GTT also was performed on the mice in the same manner as the 1-hour GTT, except that the glucose saline solution was administered to the mice 24 hours after injection with the peptide or vehicle control. The results of the 24-hour GTT are showri in FIG. 8.

[6] abbreviates: Example 20, DIO mice, subcutaneous QW, 70 or 210 nmol/kg/week.
Setting [7] is: Example 28, DIO mice, subcutaneous, 10 nmol/kg, Day 0 versus Day 7.
[8] abbreviates: Example 34, DIO mice, 10 or 35 nmol/kg.
Setting [9] is: Example 34, DIO mice, higher dose (35 nmol/kg), Day 0 versus Day 7.

Bridges are numbered along the chain shown (N, C = ends). Where no end group is shown, it is not given here. [ ]: non-standard residue; d: D form. PEG 40 kDa = PEG (40 kDa) covalently attached to Cys; C14 acyl = 14 carbon fatty acyl group; Aib = CC(C)(N)C(=O)O

T2 sequence (P43220 24-463, species assumed): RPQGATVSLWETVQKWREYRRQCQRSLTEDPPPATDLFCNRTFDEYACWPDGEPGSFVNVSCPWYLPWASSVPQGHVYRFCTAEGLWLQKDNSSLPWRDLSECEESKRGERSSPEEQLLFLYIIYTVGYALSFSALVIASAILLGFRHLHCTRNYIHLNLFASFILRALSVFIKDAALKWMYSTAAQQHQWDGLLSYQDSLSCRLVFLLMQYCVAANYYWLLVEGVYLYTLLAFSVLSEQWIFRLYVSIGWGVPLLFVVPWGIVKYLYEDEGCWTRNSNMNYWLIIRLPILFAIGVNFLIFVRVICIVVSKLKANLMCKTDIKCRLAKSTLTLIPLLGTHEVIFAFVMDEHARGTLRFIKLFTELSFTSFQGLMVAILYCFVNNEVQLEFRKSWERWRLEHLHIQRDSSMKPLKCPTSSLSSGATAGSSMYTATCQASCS
T1 sequence (P47871 26-477): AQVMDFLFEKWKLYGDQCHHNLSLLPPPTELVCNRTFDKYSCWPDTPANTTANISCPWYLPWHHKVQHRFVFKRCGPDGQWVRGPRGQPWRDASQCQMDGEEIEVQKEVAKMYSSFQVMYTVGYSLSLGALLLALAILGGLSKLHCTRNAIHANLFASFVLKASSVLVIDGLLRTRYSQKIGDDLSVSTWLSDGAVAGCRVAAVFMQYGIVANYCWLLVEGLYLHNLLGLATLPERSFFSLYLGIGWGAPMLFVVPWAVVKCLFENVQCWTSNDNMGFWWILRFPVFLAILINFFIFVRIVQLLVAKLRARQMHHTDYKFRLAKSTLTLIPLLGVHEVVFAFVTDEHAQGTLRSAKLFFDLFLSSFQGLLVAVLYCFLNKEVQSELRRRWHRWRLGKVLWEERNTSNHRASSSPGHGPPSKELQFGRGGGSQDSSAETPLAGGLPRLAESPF

As to `CCCCCCCCCCCCCC(=O)NCCCC[C@H](NC(=O)[C@H](CO)NC(=O)[C@@H]1CCCN1C(=O)[C@@H]1CCCN1C(=O)[C@@H]1CCCN1C(=O)[C@H](C)NC(=O)CNC(=O)[C@H](CO)NC(=O)[C@H](CO)NC(=O)[C@@H]1CCCN1C(=O)CNC(=O)CNC(=O)[C@H](C)NC(=O)[C@H](CC(C)C)NC(=O)[C@H](CC(C)C)NC(=O)[C@H](Cc1c[nH]c2ccccc12)NC(=O)[C@H](CC(N)=O)NC(=O)[C@@H](NC(=O)[C@H](Cc1ccccc1)NC(=O)[C@H](CCC(=O)O)NC(=O)C(C)(C)NC(=O)[C@H](C)NC(=O)[C@H](C)NC(=O)[C@H](CCC(N)=O)NC(=O)[C@H](CCCCN)NC(=O)[C@H](CC(=O)O)NC(=O)[C@H](CC(C)C)NC(=O)[C@H](Cc1ccc(O)cc1)NC(=O)[C@@H](NC(=O)[C@H](CO)NC(=O)[C@H](Cc1ccc(O)cc1)NC(=O)[C@H](CC(=O)O)NC(=O)[C@H](CO)NC(=O)[C@@H](NC(=O)[C@H](Cc1ccccc1)NC(=O)[C@@H](NC(=O)CNC(=O)[C@H](CCC(=O)O)NC(=O)C(C)(C)NC(=O)[C@@H](N)Cc1ccc(O)cc1)[C@@H](C)O)[C@@H](C)O)[C@@H](C)CC)C(C)C)C(N)=O` [mt-260], the “Glucagon Receptor relative activity” value on glucagon receptor stood at 6.64%. For the same molecule, the EC50 (as a rule, the concentration giving half of the maximal effect) at GLP-1 receptor (GLP-1 Receptor EC50, cAMP luciferase reporter assay as in Example 16) came out at 6.8 pM. The “GLP-1 Receptor relative activity” value at GLP-1 receptor (relative to the standard (Std.) EC50 of the same run) is on record as 257.35%. Also, the “GIP Receptor relative activity” value on GIP receptor is on record as 583.33%. The “receptor activity profile (glucagon / GLP-1 / GIP agonism)” value in assay [1] is “exhibited activity at the GIP, GLP-1, and glucagon receptors”. The “decrease in blood glucose levels” value in assay [2] (Example 29, mice, QD for 7 days, 25 nmol/kg) is recorded as roughly 50%.
For “Pro3 C24 GIP NH2 (1-42) 40K PEG: amino acids 1-42 of GIP with Pro at position 3, Cys at position 24 attached to 40K PEG, C-terminal amide (YAPGTFISDYSIAMDKIHQQDFVC(PEG 40 kDa)WLLAQKGKKNDWKHNITQ-NH2) [reference compound]”, the “reduction of cumulative food intake” value in assay [3] (setting [6]) was “neither the GIP antagonist nor the GIP agonist peptide were effective”. In addition, the “reduction of body weight” value in assay [4] (Example 20, DIO mice, compared with pegylated glucagon/GLP-1 co-agonist) is recorded as “neither the GIP antagonist nor the GIP agonist peptide were effective”. In assay [2] (setting [6]), the “reduction of blood glucose levels” value is on record as “neither the GIP antagonist nor the GIP agonist peptide were effective”.
With “mt-178: pegylated, cyclic, lactam-containing GIP-active glucagon analog; GLP-1/GIP co-agonist peptide (Y[Aib]EGTFTSDYSIYLDEQAAKEFVNWLLAGGPSSGAPPPSC(PEG 40 kDa)-NH2; lactam 16-20)”, in assay [5], the “potency in GTT compared with GLP-1 agonist control peptide” value is reported as “greater than that of the GLP-1 agonist control peptide”; the “blood glucose levels in 1-hour and 24-hour GTT” value was “exhibited decreased levels of blood glucose”. Further, the “receptor activity profile (glucagon / GLP-1 / GIP agonism)” value in assay [1] was “exemplary GLP-1/GIP co-agonist peptides”. The “reduction of body weight” value in assay [4] (Example 22, DIO mice) is recorded as “a little more effective at reducing body weight in the mice as Chimera 2 AIB2, but not as effective as Chimera 2 AIB2 lactam”. Further, the “% change in body weight” value in assay [4] (DIO mice) is “lost weight to the same or greater extent of mice injected with the GLP-agonist control peptide”. For the same molecule, the “total change in body weight” value in assay [4] (Example 28, DIO mice, 10 nmol/kg) was “greatest loss of body weight 7 days after injection”. Also, the blood glucose levels entry in assay [2] (setting [7]) is given as “decreased”.
On to “mt-274: pegylated, linear peptide lacking a lactam, Glu at position 3, PEG on C-terminal Cys at position 40 (Y[Aib]EGTFTSDYSIYLDKQAA[Aib]EFVNWLLAGGPSSGAPPPSC(PEG 40 kDa)-NH2)”, for which, in assay [5], the “potency in GTT compared with GLP-1 agonist control peptide” value is given as “appeared to have the highest potency”; the “blood glucose levels in 1-hour and 24-hour GTT” value was “exhibited decreased levels of blood glucose”. Moreover, the “% change in body weight” value in assay [4] (DIO mice) is “lost weight to the same or greater extent of mice injected with the GLP-agonist control peptide”. The “total change in body weight” value in assay [4] (Example 27, mice, 10 or 35 nmol/kg/week) was “most dramatic changes in body weight”. In addition, the “total change in blood glucose” value in assay [2] (Example 27, mice, subcutaneous, 10 or 35 nmol/kg/week, Day 7) was “most dramatic changes in blood glucose”. The blood glucose levels entry in assay [2] (setting [7]) is “decreased”.
In the case of “mt-309: acylated version of mt-274: C-terminal Lys with C14 fatty acyl group, 40 kDa PEG on Cys at position 24 (Y[Aib]EGTFTSDYSIYLDKQAA[Aib]EFVC(PEG 40 kDa)WLLAGGPSSGAPPPSK(C14 acyl)-NH2)”, the “total change in body weight (%), effect of dosing frequency” value in assay [4] (Example 37, DIO mice, subcutaneous QD 5 nmol/kg, every 2nd day 10 nmol/kg or QW 30 nmol/kg, Day 6) was “approximately the same as the total change in body weight for mice injected QD”. In assay [2] (Example 37, DIO mice, QD 5, every 2nd day 10 or QW 30 nmol/kg, Day 6), the “decrease in blood glucose levels, effect of dosing frequency” value is reported as “a QW injection of mt-309 achieved the same decrease in blood glucose levels as a QD injection”.
Turning to “mt-311: non-acylated version of mt-298; PEG on Cys at position 24, C-terminal Lys (Y[Aib]EGTFTSDYSIYLDKQAA[Aib]EFVC(PEG 40 kDa)WLLAGGPSSGAPPPSK-NH2)”, in assay [3] (setting [8]), the total food intake entry is recorded as “decreased, as compared to the mice injected with a vehicle control”. Moreover, the blood glucose levels entry in assay [2] (setting [7]) was “decreased”; in assay [2] (setting [9]), “decreased upon administration of the higher dose”.
On to “mt-331: same amino acid sequence as mt-311, differing in the pegylation linker; no acyl group on Lys at position 40 (Y[Aib]EGTFTSDYSIYLDKQAA[Aib]EFVC(PEG 40 kDa)WLLAGGPSSGAPPPSK-NH2; also: PEG linker structure not shown)”, for which the total food intake result in assay [3] (setting [8]) is “decreased, as compared to the mice injected with a vehicle control”; in assay [3] (Example 35, 3 or 10 nmol/kg), “decreased in comparison to mice administered the vehicle control”. In addition, the blood glucose levels result in assay [2] (setting [9]) is given as “decreased upon administration of the higher dose”.
“mt-353: same sequence as mt-331 with a C14 fatty acyl group on the Lys at position 40 (Y[Aib]EGTFTSDYSIYLDKQAA[Aib]EFVC(PEG 40 kDa)WLLAGGPSSGAPPPSK(C14 acyl)-NH2)”: the total food intake result in assay [3] (Example 35, 3 or 10 nmol/kg) was “decreased in comparison to mice administered the vehicle control”. Besides, the blood glucose levels result in assay [2] (Example 35, C57Bl/6 mice on diabetogenic diet) is “additionally caused blood glucose levels to decrease”.
